Laboratory results from patent US8796466B2, “Hepatitis C virus inhibitors” (Bristol-Myers Squibb Company, priority 2009, dated 2014).
Read-outs that look alike come from different tables or passages of the source.

Test system: HCV 1b genotype
Assay: HCV Replicon assay (HCV 1b genotype)
Type: cell-based, Hepatitis C virus
Conditions: Hepatitis C virus, HCV 1b genotype replicon
Summary of the method: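 HCV-neo replicon cells, wild-type plus lines carrying NS5A-region mutations, were exposed to compound; luciferase-reporter replicon variants were also used.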

[1] = Effective 50% inhibitory concentration, read-out: 1b EC50
[2] = class symbol, read-out: Range (EC50 values against HCV 1b)

SMILES | EC50 [1] [nM] | EC50 [2] [nM]
O=C([C@H](O)c1ccccc1)N1CCC[C@H]1c1nc(-c2ccc(Oc3ccc(-c4cnc([C@@H]5CCCN5C(=O)[C@H](O)c5ccccc5)[nH]4)cc3)cc2)c[nH]1 [OL-2, (1R)-2-((2S)-2-(4-(4-(4-(2-((2S)-1-((2R)-2-hydroxy-2-phenylacetyl)-2-pyrrolidinyl)-1H-imidazol-5-yl)phenoxy)phenyl)-1H-imidazol-2-yl)-1-pyrrolidinyl)-2-oxo-1-phenylethanol] | 9.1 | 1 to 9.9
COC(=O)N[C@H](C(=O)N1[C@@H](C)CC[C@H]1c1ncc(-c2ccc(C#Cc3ccc(-c4cnc([C@@H]5CC[C@H](C)N5C(=O)[C@@H](NC(=O)OC)C(C)C)[nH]4)cc3)cc2)[nH]1)C(C)C [Example M10, methyl ((1S)-1-(((2S,5S)-2-(4-(4-((4-(2-((2S,5S)-1-((2S)-2-((methoxycarbonyl)amino)-3-methylbutanoyl)-5-methyl-2-pyrrolidinyl)-1H-imidazol-4-yl)phenyl)ethynyl)phenyl)-1H-imidazol-2-yl)-5-methyl-1-pyrrolidinyl)carbonyl)-2-methylpropyl)carbamate] | – | 0.002 to 0.099
CN(C)[C@@H](C(=O)N1CCC[C@H]1c1ncc(-c2ccc(Oc3ccc(-c4cnc([C@@H]5CCCN5C(=O)[C@@H](c5ccccc5)N(C)C)[nH]4)cc3)cc2)[nH]1)c1ccccc1 [OL-1, (1R)-2-((2S)-2-(4-(4-(4-(2-((2S)-1-((2R)-2-(dimethylamino)-2-phenylacetyl)-2-pyrrolidinyl)-1H-imidazol-5-yl)phenoxy)phenyl)-1H-imidazol-2-yl)-1-pyrrolidinyl)-N,N-dimethyl-2-oxo-1-phenylethanamine] | – | 1 to 9.9
CN(C)[C@@H](C(=O)N1CCC[C@H]1c1ncc(-c2ccc(CCc3ccc(-c4cnc([C@@H]5CCCN5C(=O)[C@@H](c5ccccc5)N(C)C)[nH]4)cc3)cc2)[nH]1)c1ccccc1 [OL-9, (1R)-2-((2S)-2-(4-(4-(2-(4-(2-((2S)-1-((2R)-2-(dimethylamino)-2-phenylacetyl)-2-pyrrolidinyl)-1H-imidazol-5-yl)phenyl)ethyl)phenyl)-1H-imidazol-2-yl)-1-pyrrolidinyl)-N,N-dimethyl-2-oxo-1-phenylethanamine] | – | 0.002 to 0.099
COC(=O)N[C@H](C(=O)N1[C@@H]2C[C@@H]2C[C@H]1c1ncc(-c2ccc([C@H]3C[C@@H]3c3ccc(-c4cnc([C@@H]5C[C@H]6C[C@H]6N5C(=O)[C@@H](NC(=O)OC)C(C)C)[nH]4)cc3)cc2)[nH]1)C(C)C [Example M9.3] | – | 0.002 to 0.099
COC(=O)N[C@H](C(=O)N1CC(F)(F)C[C@H]1c1ncc(-c2ccc(C#Cc3ccc(-c4cnc([C@@H]5CC(F)(F)CN5C(=O)[C@H](NC(=O)OC)C5CCOCC5)[nH]4)cc3)cc2)[nH]1)C1CCOCC1 [Example N3, methyl ((1R)-2-((2S)-2-(5-(4-((4-(2-((2S)-4,4-difluoro-1-((2S)-2-((methoxycarbonyl)amino)-2-(tetrahydro-2H-pyran-4-yl)acetyl)pyrrolidin-2-yl)-1H-imidazol-5-yl)phenyl)ethynyl)phenyl)-1H-imidazol-2-yl)-4,4-difluoropyrrolidin-1-yl)-2-oxo-1-(tetrahydro-2H-pyran-4-yl)ethyl)carbamate] | 0.25 | 10 to 350
COC(=O)N[C@H](C(=O)N1CCOCC1c1ncc(-c2ccc(C#Cc3ccc(-c4cnc(C5COCCN5C(=O)[C@@H](NC(=O)OC)C(C)C)[nH]4)cc3)cc2)[nH]1)C(C)C (stereo in doubt) [Example N5, methyl ((1S)-1-(((3S)-3-(4-(4-((4-(2-((3S)-4-((2S)-2-((methoxycarbonyl)amino)-3-methylbutanoyl)-3-morpholinyl)-1H-imidazol-4-yl)phenyl)ethynyl)phenyl)-1H-imidazol-2-yl)-4-morpholinyl)carbonyl)-2-methylpropyl)carbamate] | – | 0.002 to 0.099
CC[C@H](NC(=O)OC)C(=O)N1[C@@H](C)CC[C@H]1c1nc(-c2ccc(C#Cc3ccc(-c4c[nH]c([C@@H]5CC[C@H](C)N5C(=O)[C@H](CC)NC(=O)OC)n4)cc3)cc2)c[nH]1 [Example M11, dimethyl (1,2-ethynediylbis(4,1-phenylene-1H-imidazole-4,2-diyl((2S,5S)-5-methyl-2,1-pyrrolidinediyl)((2S)-1-oxo-1,2-butanediyl)))biscarbamate] | – | 0.002 to 0.099
COC(=O)N[C@H](C(=O)N1C[C@@H](O)C[C@H]1c1ncc(-c2ccc(C#Cc3ccc(-c4cnc([C@@H]5C[C@H](O)CN5C(=O)[C@@H](NC(=O)OC)C(C)C)[nH]4)cc3)cc2)[nH]1)C(C)C [Example N7, methyl ((1S)-1-(((2S,4S)-4-hydroxy-2-(4-(4-((4-(2-((2S,4S)-4-hydroxy-1-((2S)-2-((methoxycarbonyl)amino)-3-methylbutanoyl)-2-pyrrolidinyl)-1H-imidazol-4-yl)phenyl)ethynyl)phenyl)-1H-imidazol-2-yl)-1-pyrrolidinyl)carbonyl)-2-methylpropyl)carbamate] | – | 0.002 to 0.099
COC(=O)N[C@H](C(=O)N1CCC[C@H]1c1nc(-c2ccc(C#Cc3ccc(-c4ccc(-c5c[nH]c([C@@H]6CCCN6C(=O)[C@@H](NC(=O)OC)C(C)C)n5)cc4)cc3)cc2)c[nH]1)C(C)C [Example J5, methyl ((1S)-1-(((2S)-2-(4-(4′-((4-(2-((2S)-1-((2S)-2-((methoxycarbonyl)amino)-3-methylbutanoyl)-2-pyrrolidinyl)-1H-imidazol-4-yl)phenyl)ethynyl)-4-biphenylyl)-1H-imidazol-2-yl)-1-pyrrolidinyl)carbonyl)-2-methylpropyl)carbamate] | – | 0.002 to 0.099
COC(=O)N[C@H](C(=O)N1[C@@H](C)CC[C@H]1c1ncc(-c2ccc(C#Cc3ccc(-c4cnc([C@@H]5CC[C@H](C)N5C(=O)[C@@H](NC(=O)OC)C5CCOCC5)[nH]4)cc3)cc2)[nH]1)C(C)C [Example M12.1, methyl ((1S)-1-(((2S,5S)-2-(4-(4-((4-(2-((2S,5S)-1-((2S)-2-((methoxycarbonyl)amino)-2-(tetrahydro-2H-pyran-4-yl)acetyl)-5-methyl-2-pyrrolidinyl)-1H-imidazol-4-yl)phenyl)ethynyl)phenyl)-1H-imidazol-2-yl)-5-methyl-1-pyrrolidinyl)carbonyl)-2-methylpropyl)carbamate] | – | 0.002 to 0.099
COC(=O)N[C@H](C(=O)N1C[C@@H](C)C[C@H]1c1ncc(-c2ccc(C#Cc3ccc(-c4cnc([C@@H]5C[C@H](C)CN5C(=O)[C@@H](NC(=O)OC)C(C)C)[nH]4)cc3)cc2)[nH]1)C(C)C [Example M12.2, methyl ((1S)-1-(((2S,4S)-2-(4-(4-((4-(2-((2S,4S)-1-((2S)-2-((methoxycarbonyl)amino)-3-methylbutanoyl)-4-methyl-2-pyrrolidinyl)-1H-imidazol-4-yl)phenyl)ethynyl)phenyl)-1H-imidazol-2-yl)-4-methyl-1-pyrrolidinyl)carbonyl)-2-methylpropyl)carbamate] | – | 0.002 to 0.099
COC(=O)N[C@H](C(=O)N1[C@@H]2C[C@@H]2C[C@H]1c1nc(-c2ccc([C@@H]3C[C@H]3c3ccc(-c4c[nH]c([C@@H]5C[C@H]6C[C@H]6N5C(=O)[C@@H](NC(=O)OC)C(C)C)n4)cc3)cc2)c[nH]1)C(C)C [m9.5, methyl ((1S)-1-(((1R,3S,5R)-3-(4-(4-((1R,2R)-2-(4-(2-((1R,3S,5R)-2-((2S)-2-((methoxycarbonyl)amino)-3-methylbutanoyl)-2-azabicyclo[3.1.0]hex-3-yl)-1H-imidazol-4-yl)phenyl)cyclopropyl)phenyl)-1H-imidazol-2-yl)-2-azabicyclo[3.1.0]hex-2-yl)carbonyl)-2-methylpropyl)carbamate] | – | 0.002 to 0.099
COC(=O)N[C@H](C(=O)N1[C@@H]2C[C@@H]2C[C@H]1c1nc(-c2ccc(C#Cc3ccc(-c4c[nH]c([C@@H]5C[C@H]6C[C@H]6N5C(=O)[C@@H](NC(=O)OC)C5CCOCC5)n4)cc3)cc2)c[nH]1)C1CCOCC1 [Example M6, dimethyl (1,2-ethynediylbis(4,1-phenylene-1H-imidazole-4,2-diyl(1R,3S,5R)-2-azabicyclo[3.1.0]hexane-3,2-diyl((1S)-2-oxo-1-(tetrahydro-2H-pyran-4-yl)-2,1-ethanediyl)))biscarbamate] | 0.0033 | 0.002 to 0.099
COC(=O)N[C@H](C(=O)N1[C@@H]2C[C@@H]2C[C@H]1c1nc(-c2ccc(C#Cc3ccc(-c4[nH]c([C@@H]5C[C@H]6C[C@H]6N5C(=O)[C@@H](NC(=O)OC)C5CCOCC5)nc4Cl)cc3)cc2)c[nH]1)C1CCOCC1 [Example M9.1, methyl ((1S)-2-((1R,3S,5R)-3-(4-(4-((4-(4-chloro-2-((1R,3S,5R)-2-((2S)-2-((methoxycarbonyl)amino)-2-(tetrahydro-2H-pyran-4-yl)acetyl)-2-azabicyclo[3.1.0]hex-3-yl)-1H-imidazol-5-yl)phenyl)ethynyl)phenyl)-1H-imidazol-2-yl)-2-azabicyclo[3.1.0]hex-2-yl)-2-oxo-1-(tetrahydro-2H-pyran-4-yl)ethyl)carbamate] | – | 0.002 to 0.099
COC(=O)N[C@H](C(=O)N1[C@@H]2C[C@@H]2C[C@H]1c1nc(-c2ccc(C#Cc3ccc(-c4c[nH]c([C@@H]5C[C@H]6C[C@H]6N5C(=O)[C@@H](NC(=O)OC)C5CCOCC5)n4)cc3)cc2)c[nH]1)C(C)C [Example M7, methyl ((1S)-1-(((1R,3S,5R)-3-(4-(4-((4-(2-((1R,3S,5R)-2-((2S)-2-((methoxycarbonyl)amino)-2-(tetrahydro-2H-pyran-4-yl)acetyl)-2-azabicyclo[3.1.0]hex-3-yl)-1H-imidazol-4-yl)phenyl)ethynyl)phenyl)-1H-imidazol-2-yl)-2-azabicyclo[3.1.0]hex-2-yl)carbonyl)-2-methylpropyl)carbamate] | – | 0.002 to 0.099
COC(=O)N[C@@H](C(=O)N1CCC[C@H]1c1nc(-c2ccc(-c3ccc(-c4ccc(-c5c[nH]c([C@@H]6CCCN6C(=O)[C@H](NC(=O)OC)c6ccccc6)n5)cc4)cc3)cc2)c[nH]1)c1ccccc1 [Example D-1, dimethyl (1,1′:4′,1″-terphenyl-4,4″-diylbis(1H-imidazole-4,2-diyl(2S)-2,1-pyrrolidinediyl((1R)-2-oxo-1-phenyl-2,1-ethanediyl)))biscarbamate] | – | 0.002 to 0.099
